Experimental data taken from ChEMBL document CHEMBL1201862, “PubChem BioAssay data set” (2004).
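Each compound was tested at five concentrations against cells in 96-well plates for 48 hours. GI50 marks 50% less growth.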 Calls of active or inactive are those of the source. No stated cut-off is given here; in the data, active = GI50 up to about 1.1 µM and inactive = higher.

What was measured:
Test in all cases: NCI tumour cell line growth inhibition, 48 h
MDA-MB-435 = test system: MDA-MB-435
SK-MEL-28 = test system: SK-MEL-28
A549 = test system: A549
UO-31 = test system: UO-31
PC-3 = test system: PC-3
OVCAR-8 = test system: OVCAR-8
UACC-257 = test system: UACC-257
HT-29 = test system: HT-29
RXF 393 = test system: RXF 393
U-251 = test system: U-251
NCI-H23 = test system: NCI-H23
HL-60 = test system: HL-60
HCT-116 = test system: HCT-116
KM12 = test system: KM12
NCI-H460 = test system: NCI-H460
CCRF-CEM = test system: CCRF-CEM
SN12C = test system: SN12C
SK-OV-3 = test system: SK-OV-3
HCC 2998 = test system: HCC 2998
BT-549 = test system: BT-549

Structure (SMILES)	GI50 (MDA-MB-435)	GI50 (SK-MEL-28)	GI50 (A549)	GI50 (UO-31)	GI50 (PC-3)	GI50 (OVCAR-8)	GI50 (UACC-257)	GI50 (HT-29)	GI50 (RXF 393)	GI50 (U-251)	GI50 (NCI-H23)	GI50 (HL-60)	GI50 (HCT-116)	GI50 (KM12)	GI50 (NCI-H460)	GI50 (CCRF-CEM)	GI50 (SN12C)	GI50 (SK-OV-3)	GI50 (HCC 2998)	GI50 (BT-549)
C=C/C(C)=C\CC1[C@](C)(O)CC[C@H]2C(C)(C)C(O)CC[C@]12C (stereo not given in full)	> 100 µM (inactive)	> 100 µM (inactive)	> 100 µM (inactive)	> 100 µM (inactive)	70 µM (inactive)	> 100 µM (inactive)	> 100 µM (inactive)	44.3 µM (inactive)	95.1 µM (inactive)	> 100 µM (inactive)	55.8 µM (inactive)	17.7 µM (inactive)	54.8 µM (inactive)	> 100 µM (inactive)	78.2 µM (inactive)	27.5 µM (inactive)	> 100 µM (inactive)			
Cn1c(=O)oc2nc(-c3ccccc3)cc(C(F)(F)F)c21	15.9 µM (inactive)	> 100 µM (inactive)	> 100 µM (inactive)	> 100 µM (inactive)	> 100 µM (inactive)	> 100 µM (inactive)	> 100 µM (inactive)	33.2 µM (inactive)		95.3 µM (inactive)	> 100 µM (inactive)		9.33 µM (inactive)	9.93 µM (inactive)	> 100 µM (inactive)		5.71 µM (inactive)	> 100 µM (inactive)	> 100 µM (inactive)	> 100 µM (inactive)
COC(=O)C1CC(C=[N+](C)C)=C(SC)N1C(=O)OCc1ccccc1 (stereo not given)	> 100 µM (inactive)	> 100 µM (inactive)	> 100 µM (inactive)	> 100 µM (inactive)	> 100 µM (inactive)	> 100 µM (inactive)	> 100 µM (inactive)	> 100 µM (inactive)	> 100 µM (inactive)	> 100 µM (inactive)	> 100 µM (inactive)		> 100 µM (inactive)	> 100 µM (inactive)	30.8 µM (inactive)			> 100 µM (inactive)	> 100 µM (inactive)	> 100 µM (inactive)
CC1OC1P(=O)(O)O (stereo not given)	> 100 µM (inactive)	> 100 µM (inactive)	> 100 µM (inactive)	> 100 µM (inactive)	> 100 µM (inactive)	> 100 µM (inactive)	> 100 µM (inactive)	> 100 µM (inactive)	> 100 µM (inactive)	> 100 µM (inactive)	> 100 µM (inactive)		> 100 µM (inactive)	> 100 µM (inactive)	> 100 µM (inactive)	27.5 µM (inactive)	> 100 µM (inactive)	> 100 µM (inactive)	> 100 µM (inactive)	> 100 µM (inactive)
Cc1cc(N(CCC#N)CCC#N)ccc1C(/N=N\c1ccc([N+](=O)[O-])cc1)=N\NC(=O)c1cc(Cl)ccc1O	64.9 µM (inactive)		38.6 µM (inactive)	13.8 µM (inactive)	23 µM (inactive)	19.8 µM (inactive)	34 µM (inactive)	29.4 µM (inactive)	28.6 µM (inactive)	46.1 µM (inactive)	15.6 µM (inactive)		25.5 µM (inactive)	27.7 µM (inactive)	25.1 µM (inactive)	25.1 µM (inactive)	22.6 µM (inactive)	50.7 µM (inactive)	16.4 µM (inactive)	34.8 µM (inactive)
COc1cc(-c2cc(OC)c(OC)c3ccc(Br)cc23)c2cc(Br)ccc2c1OC	23.7 µM (inactive)	20.1 µM (inactive)	20.3 µM (inactive)	41.8 µM (inactive)	20.6 µM (inactive)		46.1 µM (inactive)	19.2 µM (inactive)	15.1 µM (inactive)	20.5 µM (inactive)	22.4 µM (inactive)		12.4 µM (inactive)		41.7 µM (inactive)		26 µM (inactive)	30.8 µM (inactive)	36.1 µM (inactive)	
CC(=O)OCCCCn1nncc1Cn1ccc(=O)n(Cc2cnnn2CCCCOC(C)=O)c1=O	> 100 µM (inactive)	> 100 µM (inactive)	> 100 µM (inactive)	> 100 µM (inactive)	> 100 µM (inactive)	> 100 µM (inactive)	> 100 µM (inactive)		> 100 µM (inactive)	> 100 µM (inactive)	> 100 µM (inactive)		> 100 µM (inactive)	> 100 µM (inactive)		0.385 µM (active)	> 100 µM (inactive)	> 100 µM (inactive)	> 100 µM (inactive)	> 100 µM (inactive)
Cn1c(=O)nc2n(-c3ccc(Cl)cc3)c3ccc(Cl)cc3nc-2c1=O		9.23 µM (inactive)	5.75 µM (inactive)	18 µM (inactive)		3.98 µM (inactive)	3.4 µM (inactive)	8.79 µM (inactive)	2.04 µM (inactive)	1.98 µM (inactive)	2.36 µM (inactive)	2.68 µM (inactive)	8.55 µM (inactive)	14.5 µM (inactive)	5.98 µM (inactive)	13.6 µM (inactive)	13.1 µM (inactive)	88.7 µM (inactive)	7.76 µM (inactive)	
CCOC(=O)c1cc(-c2ccc(Cl)cc2)c([N+](=O)[O-])n1C	> 10 µM (inactive)		> 10 µM (inactive)	5.48 µM (inactive)		> 10 µM (inactive)	> 10 µM (inactive)	> 10 µM (inactive)		> 10 µM (inactive)	> 10 µM (inactive)	> 10 µM (inactive)	> 10 µM (inactive)	> 10 µM (inactive)	> 10 µM (inactive)	> 10 µM (inactive)	> 10 µM (inactive)	> 10 µM (inactive)	> 10 µM (inactive)	> 10 µM (inactive)
CC(C)=C[C@H]1CCC2(OCCO2)[C@]1(C)CO	> 100 µM (inactive)	> 100 µM (inactive)	> 100 µM (inactive)	> 100 µM (inactive)	> 100 µM (inactive)	> 100 µM (inactive)	> 100 µM (inactive)		> 100 µM (inactive)		> 100 µM (inactive)		> 100 µM (inactive)	> 100 µM (inactive)	> 100 µM (inactive)	> 100 µM (inactive)	> 100 µM (inactive)	> 100 µM (inactive)	> 100 µM (inactive)	> 100 µM (inactive)
CCOC(=O)C1C(C)C2(C#N)C(=N)OC1(C)C2(C#N)C#N (stereo not given)	65.9 µM (inactive)	28.1 µM (inactive)	> 100 µM (inactive)	76.9 µM (inactive)	> 100 µM (inactive)	> 100 µM (inactive)	42.1 µM (inactive)	58.9 µM (inactive)	25.8 µM (inactive)	69.2 µM (inactive)	60 µM (inactive)	21.8 µM (inactive)	76.7 µM (inactive)	> 100 µM (inactive)			64.9 µM (inactive)	> 100 µM (inactive)	> 10 µM (inactive)	
CC(CO)C1C[C@H](O)[C@@]2(C)CC(=O)C=C(CO)[C@@H]2C1 (stereo not given in full)	> 100 µM (inactive)	> 100 µM (inactive)	> 100 µM (inactive)	> 100 µM (inactive)		> 100 µM (inactive)	> 100 µM (inactive)	> 100 µM (inactive)	> 100 µM (inactive)	> 100 µM (inactive)	> 100 µM (inactive)	92 µM (inactive)	> 100 µM (inactive)	> 100 µM (inactive)	> 100 µM (inactive)		> 100 µM (inactive)	> 100 µM (inactive)	> 100 µM (inactive)	> 100 µM (inactive)
O=C(Nc1ccc(C(F)(F)F)cc1[N+](=O)[O-])C(=O)C(C(=O)c1ccc2ccccc2c1)C1OC(=O)c2ccccc21 (stereo not given)		3.63 µM (inactive)	8.51 µM (inactive)	13.8 µM (inactive)		5.07 µM (inactive)	10.1 µM (inactive)	9.08 µM (inactive)	2.94 µM (inactive)	4.41 µM (inactive)	5.31 µM (inactive)	8.28 µM (inactive)	4.36 µM (inactive)	11.9 µM (inactive)	3.81 µM (inactive)	3.7 µM (inactive)	12.9 µM (inactive)	26.5 µM (inactive)	5.89 µM (inactive)	
Cc1c(O)c(OC2OC(CO)C(O)C(O)C2O)cc2c1CC[C@@H]1C2(C)C(=O)C[C@]2(C)[C@@H]([C@@](C)(O)C(=O)CCC(C)(C)O)[C@H](O)C[C@@]12C (stereo not given in full)	> 100 µM (inactive)	> 100 µM (inactive)	> 100 µM (inactive)	> 100 µM (inactive)	> 100 µM (inactive)	> 100 µM (inactive)	> 100 µM (inactive)	> 100 µM (inactive)	> 100 µM (inactive)	> 100 µM (inactive)	> 100 µM (inactive)		> 100 µM (inactive)	> 100 µM (inactive)	> 100 µM (inactive)	> 100 µM (inactive)	> 100 µM (inactive)	> 100 µM (inactive)	> 100 µM (inactive)	> 100 µM (inactive)
C=CCCCC1CCCNC1=O (stereo not given)	> 100 µM (inactive)	> 100 µM (inactive)	> 100 µM (inactive)	> 100 µM (inactive)	> 100 µM (inactive)	> 100 µM (inactive)	> 100 µM (inactive)	> 100 µM (inactive)	> 100 µM (inactive)	> 100 µM (inactive)	> 100 µM (inactive)		> 100 µM (inactive)	> 100 µM (inactive)	42.6 µM (inactive)		> 100 µM (inactive)	> 100 µM (inactive)	> 100 µM (inactive)	> 100 µM (inactive)
